Results: patent US9057727B2, “Screening methods using G-protein coupled receptors and related compositions” (The General Hospital Corporation, priority 2007, dated 2015)
pEC50, pIC50: −log10 of the molar value. Square brackets hold non-standard residues; d marks the D form. Ends that are not written are not given here. Peptide text beside a SMILES is read from it. hArg = N=C(N)NCCCC[C@H](N)C(=O)O; Aib = CC(C)(N)C(=O)O

Columns and labels:
human PTH1 receptor = molecular target: T1, human PTH1 receptor (Homo sapiens, UniProt Q03431); test: cAMP signaling dose-response in HKRK-B7 cells; format: cell-based; conditions: 15 min, 37° C., IBMX
T1 construct: expressed in transfected cells
T1 sequence (Q03431 27-593): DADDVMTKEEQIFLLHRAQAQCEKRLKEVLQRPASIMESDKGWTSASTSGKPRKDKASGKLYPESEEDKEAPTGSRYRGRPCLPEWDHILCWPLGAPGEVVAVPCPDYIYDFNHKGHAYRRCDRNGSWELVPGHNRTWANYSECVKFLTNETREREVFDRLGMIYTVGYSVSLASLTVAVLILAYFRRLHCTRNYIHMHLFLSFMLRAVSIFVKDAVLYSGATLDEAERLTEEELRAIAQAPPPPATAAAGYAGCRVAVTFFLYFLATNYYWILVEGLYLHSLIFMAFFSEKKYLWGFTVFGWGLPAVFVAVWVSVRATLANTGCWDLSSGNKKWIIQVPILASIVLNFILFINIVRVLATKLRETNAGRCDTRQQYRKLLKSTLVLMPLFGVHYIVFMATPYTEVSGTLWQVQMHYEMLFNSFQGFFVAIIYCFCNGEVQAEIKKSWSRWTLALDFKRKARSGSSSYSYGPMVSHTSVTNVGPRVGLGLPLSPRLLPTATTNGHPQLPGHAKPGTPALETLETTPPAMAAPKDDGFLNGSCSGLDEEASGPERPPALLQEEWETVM
Experimental: In the cAMP experiments of FIG. 14, HKRK-B7 were seeded in 96 well plates at 1×10^5 cells/well and incubated overnight. On the following day, the cells were washed once with […] of binding buffer (50 mM Tris-HCl, pH 7.7, 100 mM NaCl, 5 mM KCl, 2 mM CaCl2, 5% heat-inactivated horse serum, 0.5% heat-inactivated fetal bovine serum), followed by addition of 100 μl cAMP assay buffer (DMEM, 2 mM IBMX, 1 mg/ml bovine serum albumin, 35 mM Hepes-NaOH, pH 7.4) on ice. […] After removing the medium, the plates were placed on powdered dry ice to freeze the cells and then removed from dry ice. The cells were thawed with 50 μl of 50 mM HCl and frozen again on dry ice. The level of intracellular cAMP was measured with a commercially available cAMP EIA kit (Biotrack cAMP EIA system, GE Healthcare).
HKRK-B, which are LLC-PK1 cells over-expressing human PTH1 receptor at levels of 9.5×10^5 per cell were used in the cAMP signaling assay. The cells were cultured at 37° C. in a humidified atmosphere containing 5% CO2 in Dulbecco's modified Eagle's medium (DMEM), supplemented with 10% fetal bovine serum (Hyclone), 100 units/ml penicillin G, and 100 μg/ml streptomycin sulfate (Invitrogen Corp). […] All peptides were dissolved at 1 mM in 10 mM acetic acid, and stored at −80° C. The cAMP stimulation assay was performed as described above for HKRK-B7 cells. […] Cells were treated for 15 minutes at 37° C. with varying concentrations of ligands in the presence of IBMX.

human PTH receptor = molecular target: T2, human PTH receptor (Homo sapiens, UniProt Q03431); test: cAMP in HRKRK-B7 cells EC50 (nM)
T2 construct: expressed in transfected cells
Description: Table printed on a drawing sheet, Figure 25
Head of the field: cAMP in HRKRK-B7 cells EC50 (nM)
First copying reader's note: The column head prints the cell line as HRKRK-B7 while the title prints HKRK-B7.

[1] = molecular target: hPTH1R (RG form of the human PTH receptor); test: RG memb: hPTH1R+dnGS *M-PTH(1-15)
[2] = molecular target: T3, human PTHR, G protein-uncoupled conformation (R^0) (Homo sapiens, UniProt Q03431); test: Competition binding to R0 conformation of hPTHR (COS-7 membranes, GTPγS, 125I-PTH(1-34) tracer); conditions: human PTH receptor on COS-7 cell membranes
T3 construct: expressed in transfected cells; host or cells: COS-7, transient (Fugene-6)
T3 sequence (Q03431 27-593): T1 sequence (Q03431 27-593)
Procedure, shortened: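 Bound versus free radioligand was separated by vacuum filtration after 90 min incubation of COS-7 hPTHR membranes (20-100 μg/mL) with tracer and competing peptides. Non-specific binding came from a saturating unlabeled analog.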

[3] = system: PTHR-CFPIC3/YFPCT (PTHR-cam); test: FRET analysis of ligand binding/receptor activation in HEK-293 cells; format: cell-based, human
Description: HEK-293 cells stably transfected with a PTHR construct (PTHR-cam) containing cyan fluorescent protein (CFP) in the third intracellular loop and yellow fluorescent protein (YFP) in the carboxy-terminal tail, were used to assess the kinetics of ligand binding to, and dissociation from the PTHR. With PTHR-cam, excitation of the CFP with ultraviolet light (λexc=436 nm) produces an intramolecular FRET to the YFP, which is observable as an increase in light emission from YFP (λemm=535 nm) and a decrease in light emission from CFP λemm=480 nm). This FRET signal occurs in the ground-state receptor and decreases upon agonist binding. […] Data are from a single experiment, and identical results were obtained in at least three others.
The approach used exploits an intramolecular FRET signal that occurs in a human PTHR construct, PTHR-CFPIC3/YFPCT (formerly called PTHR-cam). This construct contains cyan-fluorescent protein (CFP) in the third intracellular loop and yellow-fluorescent protein (YFP) in the carboxy-terminal tail. A FRET signal is produced by PTHR-CFPIC3/YFPCT in the basal state, and this signal diminishes upon agonist binding, likely due to conformational change that occurs upon activation.
HEK-293 cells stably expressing HEK-PTHR-CFPIC3/YFPCT (previously called HEK-PTHR-Cam cells (Vilardaga et al., Nat. Biotechnol. 21:807-812 (2003)) were grown on glass coverslips and processed for FRET analysis as described. With these cells, excitation of the CFP (donor) in PTHR-CFPIC3/YFPCT with ultraviolet light (λmax.ex.=436 nm; λmax.em.=480 nm) produces an intramolecular FRET to the YFP (acceptor), resulting in emission from that YFP (λmax.ex.=480 nm, λmax.em.=535 nm). This FRET response is observable as a decrease in intensity of CFP light emission at 480 nm, and an increase in intensity of YFP light emission at 535 nm. The FRET signal is produced by PTHR-CFPIC3/YFPCT in the ground-state receptor and decreases upon binding of an agonist. […] Fluorescence was monitored using a Zeiss inverted microscope equipped with a 100× objective and a dual emission photometric system (Til Photonics), coupled to an avalanche photodiode detection system and an analog-digital converter (Axon Instruments). The FRET signal detected upon excitation at 436 nm was calculated as the normalized FRET ratio: FYFP(535 nm)/FCFP(480 nm) where FYFP(535 nm) is the emission at 535 nm, corrected for spillover of the CFP signal into the YFP channel, and FCFP(480 nm) is the emission at 480 nm, corrected for spillover (minimal) of the YFP emission into the CFP channel. Changes in fluorescence emissions due to photo-bleaching were subtracted.

Compound | cAMP in HKRK-B7 cells Max (human PTH1 receptor) [pm/well] | reduction (magnitude) of FRET signal [3] [%] | also measured
CC[C@H](C)[C@H](NC(=O)[C@H](CCC(=O)O)NC(=O)[C@H](C)NC(=O)[C@@H](NC(=O)[C@H](C)N)C(C)C)C(=O)N[C@@H](CCC(N)=O)C(=O)N[C@@H](CC(C)C)C(=O)N[C@@H](CCSC)C(=O)N[C@@H](Cc1c[nH]cn1)C(=O)N[C@@H](CCC(N)=O)C(=O)N[C@@H](CCCNC(=N)N)C(=O)N[C@@H](C)C(=O)N[C@@H](CCCCN)C(=O)N[C@@H](Cc1c[nH]c2ccccc12)C(=O)N[C@@H](CC(C)C)C(=O)N[C@@H](CC(N)=O)C(=O)N[C@@H](CO)C(=O)N[C@@H](CCSC)C(=O)N[C@@H](CCCNC(=N)N)C(=O)N[C@@H](CCCNC(=N)N)C(=O)N[C@H](C(=O)N[C@@H](CCC(=O)O)C(=O)N[C@@H](Cc1c[nH]c2ccccc12)C(=O)N[C@@H](CC(C)C)C(=O)N[C@@H](CCCNC(=N)N)C(=O)N[C@@H](CCCCN)C(=O)N[C@@H](CCCCN)C(=O)N[C@@H](CC(C)C)C(=O)N[C@@H](CCC(N)=O)C(=O)N[C@@H](CC(=O)O)C(=O)N[C@H](C(=O)N[C@@H](Cc1c[nH]cn1)C(=O)N[C@@H](CC(N)=O)C(=O)N[C@@H](Cc1ccccc1)C(=O)O)C(C)C)C(C)C [Mc-PTH34(R19), Mc-hPTH(1-34)OH] (H-AVAEIQLMHQRAKWLNSMRRVEWLRKKLQDVHNF-OH; N-terminus assumed) | 65.5 |  | 
CC[C@H](C)[C@H](NC(=O)[C@H](CCC(=O)O)NC(=O)[C@H](C)NC(=O)[C@@H](NC(=O)[C@H](Cc1c[nH]cn1)NC(=O)[C@@H](NC(=O)[C@H](CC(=O)O)NC(=O)[C@H](CCC(N)=O)NC(=O)[C@H](CC(C)C)NC(=O)[C@H](CCCCN)NC(=O)[C@H](CCCCN)NC(=O)[C@H](CCCNC(=N)N)NC(=O)[C@H](CC(C)C)NC(=O)[C@H](Cc1c[nH]c2ccccc12)NC(=O)[C@H](CCC(=O)O)NC(=O)[C@@H](NC(=O)[C@H](CCCNC(=N)N)NC(=O)[C@H](CCC(=O)O)NC(=O)[C@H](CCSC)NC(=O)[C@H](CO)NC(=O)[C@H](CC(N)=O)NC(=O)[C@H](CC(C)C)NC(=O)[C@H](Cc1c[nH]cn1)NC(=O)[C@H](CCCCN)NC(=O)CNC(=O)[C@H](CC(C)C)NC(=O)[C@H](CC(N)=O)NC(=O)[C@H](Cc1c[nH]cn1)NC(=O)[C@H](CCSC)NC(=O)[C@H](CC(C)C)NC(=O)[C@H](CCC(N)=O)NC(=O)[C@@H](NC(=O)[C@H](CCC(=O)O)NC(=O)[C@H](CO)NC(=O)[C@@H](NC(=O)[C@@H](N)CO)C(C)C)[C@@H](C)CC)C(C)C)[C@@H](C)CC)[C@@H](C)O)C(=O)O [PTH(1-30)/PTHrP(31-36)] |  |  | pEC50 (human PTH receptor): 9.11; pIC50 [1]: 9.77
CC[C@H](C)[C@H](NC(=O)[C@H](CCC(=O)O)NC(=O)[C@H](C)NC(=O)[C@@H](NC(=O)[C@H](C)N)C(C)C)C(=O)N[C@@H](CCC(N)=O)C(=O)N[C@@H](CC(C)C)C(=O)N[C@@H](CCSC)C(=O)N[C@@H](Cc1c[nH]cn1)C(=O)N[C@@H](CCC(N)=O)C(=O)N[C@@H](CCCNC(=N)N)C(=O)NCC(=O)N[C@@H](CCCCN)C(=O)N[C@@H](Cc1c[nH]cn1)C(=O)N[C@@H](CC(C)C)C(=O)N[C@@H](CC(N)=O)C(=O)N[C@@H](CO)C(=O)N[C@@H](CCSC)C(=O)N[C@@H](CCC(=O)O)C(=O)N[C@@H](CCCNC(=N)N)C(=O)N[C@H](C(=O)N[C@@H](CCC(=O)O)C(=O)N[C@@H](C)C(=O)N[C@@H](CC(C)C)C(=O)N[C@@H](CCCNC(=N)N)C(=O)N[C@@H](CCCCN)C(=O)N[C@@H](CCCCN)C(=O)N[C@@H](CC(C)C)C(=O)N[C@@H](CCC(N)=O)C(=O)N[C@@H](CC(=O)O)C(=O)N[C@H](C(=O)N[C@@H](Cc1c[nH]cn1)C(=O)N[C@@H](CC(N)=O)C(=O)N[C@@H](Cc1ccccc1)C(=O)O)C(C)C)C(C)C [[A1,3,23,Q10,R11]-PTH(1-34)OH, [A^1,A^3,A^23,Q^10,R^11]-PTH(1-34)OH] | 63.8 |  | 
CC[C@H](C)[C@H](NC(=O)[C@H](CCC(=O)O)NC(=O)[C@H](C)NC(=O)[C@@H](NC(=O)[C@H](C)N)C(C)C)C(=O)N[C@@H](CCC(N)=O)C(=O)N[C@@H](CC(C)C)C(=O)N[C@@H](CCSC)C(=O)N[C@@H](Cc1c[nH]cn1)C(=O)N[C@@H](CC(N)=O)C(=O)N[C@@H](CC(C)C)C(=O)NCC(=O)N[C@@H](CCCCN)C(=O)N[C@@H](Cc1c[nH]cn1)C(=O)N[C@@H](CC(C)C)C(=O)N[C@@H](CC(N)=O)C(=O)N[C@@H](CO)C(=O)N[C@@H](CCSC)C(=O)N[C@@H](CCC(=O)O)C(=O)N[C@@H](CCCNC(=N)N)C(=O)N[C@H](C(=O)N[C@@H](CCC(=O)O)C(=O)N[C@@H](C)C(=O)N[C@@H](CC(C)C)C(=O)N[C@@H](CCCNC(=N)N)C(=O)N[C@@H](CCCCN)C(=O)N[C@@H](CCCCN)C(=O)N[C@@H](CC(C)C)C(=O)N[C@@H](CCC(N)=O)C(=O)N[C@@H](CC(=O)O)C(=O)N[C@H](C(=O)N[C@@H](Cc1c[nH]cn1)C(=O)N[C@@H](CC(N)=O)C(=O)N[C@@H](Cc1ccccc1)C(=O)O)C(C)C)C(C)C [[A1,3,23]-PTH(1-34)OH, [A^1,A^3,A^23]-PTH(1-34)OH] (H-AVAEIQLMHNLGKHLNSMERVEALRKKLQDVHNF-OH; N-terminus assumed) | 66.6 |  | R0/RG ratio [2]: 4291
CC[C@H](C)[C@H](NC(=O)[C@H](CCC(=O)O)NC(=O)[C@H](CO)NC(=O)[C@@H](NC(=O)[C@@H](N)CO)C(C)C)C(=O)N[C@@H](CCC(N)=O)C(=O)N[C@@H](CC(C)C)C(=O)N[C@@H](CCSC)C(=O)N[C@@H](Cc1c[nH]cn1)C(=O)N[C@@H](CC(N)=O)C(=O)N[C@@H](CC(C)C)C(=O)NCC(=O)N[C@@H](CCCCN)C(=O)N[C@@H](Cc1c[nH]cn1)C(=O)N[C@@H](CC(C)C)C(=O)N[C@@H](CC(N)=O)C(=O)N[C@@H](CO)C(=O)N[C@@H](CCSC)C(=O)N[C@@H](CCC(=O)O)C(=O)N[C@@H](CCCNC(=N)N)C(=O)N[C@H](C(=O)N[C@@H](CCC(=O)O)C(=O)N[C@@H](Cc1c[nH]c2ccccc12)C(=O)N[C@@H](CC(C)C)C(=O)N[C@@H](CCCNC(=N)N)C(=O)N[C@@H](CCCCN)C(=O)N[C@@H](CCCCN)C(=O)N[C@@H](CC(C)C)C(=O)N[C@@H](CCC(N)=O)C(=O)N[C@@H](CC(=O)O)C(=O)N[C@H](C(=O)N[C@@H](Cc1c[nH]cn1)C(=O)N[C@@H](CC(N)=O)C(=O)N[C@@H](Cc1ccccc1)C(=O)O)C(C)C)C(C)C [hPTH(1-34), Human parathyroid hormone (1-34)] |  | ~13 | FRET signal after exchange to ligand-free buffer, in words [3]: remained suppressed
[Aib^1,3,Gln^10,Har^11,Ala^12,Trp^14]rPTH(1-14)NH2 ([Aib]V[Aib]EIQLMHQ[hArg]AKW-NH2; N-terminus assumed; SMILES CC[C@H](C)[C@H](NC(=O)[C@H](CCC(=O)O)NC(=O)C(C)(C)NC(=O)[C@@H](NC(=O)C(C)(C)N)C(C)C)C(=O)N[C@@H](CCC(N)=O)C(=O)N[C@@H](CC(C)C)C(=O)N[C@@H](CCSC)C(=O)N[C@@H](Cc1c[nH]cn1)C(=O)N[C@@H](CCC(N)=O)C(=O)N[C@@H](CCCCNC(=N)N)C(=O)N[C@@H](C)C(=O)N[C@@H](CCCCN)C(=O)N[C@@H](Cc1c[nH]c2ccccc12)C(N)=O) [[Aib^1,3,M]PTH(1-14)] |  | ~5 | 
